According to patent publication US20230210797A1, “PREVENTING AND TREATING HYPOGLYCEMIA” (DIAMYD MEDICAL AB, priority 2019, published 2023):
“Also recorded” adds a separate entry of the source.

Test system: norepinephrine
Experiment: Hypoglycemic clamp: plasma norepinephrine levels
Assay type: in vivo, human
Details: for Norepinephrine, observed value, Mean (SD) / Norepinephrine, observed value, Median (Min, Max) / Norepinephrine, change from baseline, Mean (SD) / Norepinephrine, change from baseline, Median (Min, Max): C-peptide undetectable, n=5
Description: In order to evaluate the counterregulatory hormone response to hypoglycemia, a hypoglycemic clamp will be performed. The Hypoglycemic Clamp must be performed according to the instructions in the Operations Manual. (Appendix 3)
The patient should: • Come to the study site following an overnight fast (>10 hours), i.e. the patient may not eat but is permitted to drink water • Not have taken the Remygen and, if applicable, Alprazolam dose in the morning • Not take short acting/direct acting insulin within 6 hours before the investigation. • The patient is allowed to take base-insulin day/night before, but not in the morning before the investigation.
Patients with CSII (insulin pump) must continue with their basal dose insulin, but not add bolus dose during the last 6 hours before the investigation.
If a patient has a blood sugar level <4 mmol/L in the morning of the scheduled visit, the patient is allowed to take dextrose tablets and then come to the study site. The patient is allowed to perform the investigation if the blood sugar level is >4 mmol/L.
In the dose-escalation part of the study, the patient will take study drug 30 min prior to start of the hypoglycemic clamp. In the main study, the study drug will instead be taken after finalization of the hypoglycemic clamp. Baseline blood samples will be obtained for glucose, glucagon, epinephrine, norepinephrine, growth hormone and cortisol. The clamp will then be initiated by an intravenous insulin infusion at a rate of 2 mU×kg^−1×min^−1. Glucose 100 mg/ml will then be administered in variable infusion rates to clamp the blood glucose concentration at 5.5 mmol/land then at 2.5 mmol/land kept stable for 30 min. Blood glucose will be evaluated repeatedly in order to find the optimal glucose infusion rate. Blood sampling to determined levels of counterregulatory hormones as described above will be performed at each of these target levels when a stable glucose concentration has been reached. The insulin infusion will thereafter be terminated and the patient is allowed to eat and will be observed until normoglycemia is achieved. If necessary, additional glucose administration will be given to allow blood glucose concentrations to normalize.
Only patients with c-peptide levels that were undetectable (in a standard assay, i.e. <0.01 nmol/L) are included (5 of 6) in the data below.
Plasma levels of glucagon, cortisol, epinephrine, growth hormone and glucose were measured at baseline (increased glucose in T1D subjects). Plasma glucose was first lowered to normoglycemic levels (5.5 mmol/L) and hormone levels monitored, and then to hypoglycemic levels (2.5 mmol/L) and hormone levels monitored. Difference was calculated as a measurement of the response to hypoglycemia.

[1] = Visit 5, 200 mg GABA per day, event 2.5 mmol/L
[2] = Visit 5, 200 mg GABA per day, event 5.5 mmol/L
[3] = Visit 5, 200 mg GABA per day, event Baseline
[4] = Visit 5, 200 mg GABA per day, event Diff 2.5-5.5 mmol/L
[5] = Visit 7, 600 mg GABA per day, event 2.5 mmol/L
[6] = Visit 7, 600 mg GABA per day, event 5.5 mmol/L
[7] = Visit 7, 600 mg GABA per day, event Baseline
[8] = Visit 7, 600 mg GABA per day, event Diff 2.5-5.5 mmol/L
[9] = Visit 9, 1200 mg GABA per day, event 2.5 mmol/L
[10] = Visit 9, 1200 mg GABA per day, event 5.5 mmol/L
[11] = Visit 9, 1200 mg GABA per day, event Baseline
[12] = Visit 9, 1200 mg GABA per day, event Diff 2.5-5.5 mmol/L

## NCCCC(=O)O [GABA, Gamma-amino butyric acid]
[1]
  Norepinephrine, observed value, Mean (SD): 1.82 (0.41) nmol(L
  Norepinephrine, observed value, Median (Min, Max): 1.90 (1.4, 2.3) nmol(L
[2]
  Norepinephrine, change from baseline, Mean (SD): −0.16 (0.52) nmol(L
  Norepinephrine, change from baseline, Median (Min, Max): 0.00 (−0.9, 0.5) nmol(L
  Norepinephrine, observed value, Mean (SD): 1.78 (0.52) nmol(L
  Norepinephrine, observed value, Median (Min, Max): 1.60 (1.2, 2.5) nmol(L
[3]
  Norepinephrine, change from baseline, Mean (SD): −0.34 (0.53) nmol(L
  Norepinephrine, change from baseline, Median (Min, Max): −0.50 (−0.9, 0.5) nmol(L
  Norepinephrine, observed value, Mean (SD): 1.46 (0.35) nmol(L
  Norepinephrine, observed value, Median (Min, Max): 1.50 (1.1, 2.0) nmol(L
[4]
  Norepinephrine, change from baseline, Mean (SD): −0.28 (0.59) nmol(L
  Norepinephrine, change from baseline, Median (Min, Max): 0.00 (−1.3, 0.1) nmol(L
  Norepinephrine, observed value, Mean (SD): 0.04 (0.29) nmol(L
  Norepinephrine, observed value, Median (Min, Max): 0.20 (−0.4, 0.3) nmol(L
[5]
  Norepinephrine, change from baseline, Mean (SD): −0.56 (0.73) nmol(L
  Norepinephrine, change from baseline, Median (Min, Max): −0.50 (−1.6, 0.3) nmol(L
  Norepinephrine, observed value, Mean (SD): 1.70 (0.27) nmol(L
  Norepinephrine, observed value, Median (Min, Max): 1.70 (1.4, 2.1) nmol(L
[6]
  Norepinephrine, change from baseline, Mean (SD): −0.10 (0.31) nmol(L
  Norepinephrine, change from baseline, Median (Min, Max): −0.10 (−0.4, 0.3) nmol(L
  Norepinephrine, observed value, Mean (SD): 1.84 (0.34) nmol(L
  Norepinephrine, observed value, Median (Min, Max): 2.00 (1.3, 2.1) nmol(L
[7]
  Norepinephrine, change from baseline, Mean (SD): −0.32 (0.49) nmol(L
  Norepinephrine, change from baseline, Median (Min, Max): −0.30 (−0.9, 0.4) nmol(L
  Norepinephrine, observed value, Mean (SD): 1.48 (0.70) nmol(L
  Norepinephrine, observed value, Median (Min, Max): 1.20 (1.0, 2.7) nmol(L
[8]
  Norepinephrine, change from baseline, Mean (SD): −0.46 (0.50) nmol(L
  Norepinephrine, change from baseline, Median (Min, Max): −0.50 (−1.2, 0.0) nmol(L
  Norepinephrine, observed value, Mean (SD): −0.14 (0.27) nmol(L
  Norepinephrine, observed value, Median (Min, Max): −0.30 (−0.4, 0.2) nmol(L
[9]
  Norepinephrine, change from baseline, Mean (SD): −0.66 (0.68) nmol(L
  Norepinephrine, change from baseline, Median (Min, Max): −0.70 (−1.6, 0.0) nmol(L
  Norepinephrine, observed value, Mean (SD): 1.60 (0.42) nmol(L
  Norepinephrine, observed value, Median (Min, Max): 1.60 (1.2, 2.2) nmol(L
[10]
  Norepinephrine, change from baseline, Mean (SD): −0.46 (0.84) nmol(L
  Norepinephrine, change from baseline, Median (Min, Max): −0.20 (−1.7, 0.4) nmol(L
  Norepinephrine, observed value, Mean (SD): 1.48 (0.50) nmol(L
  Norepinephrine, observed value, Median (Min, Max): 1.40 (0.8, 2.2) nmol(L
[11]
  Norepinephrine, change from baseline, Mean (SD): −0.58 (0.59) nmol(L
  Norepinephrine, change from baseline, Median (Min, Max): −0.50 (−1.3, 0.2) nmol(L
  Norepinephrine, observed value, Mean (SD): 1.22 (0.35) nmol(L
  Norepinephrine, observed value, Median (Min, Max): 1.00 (0.9, 1.6) nmol(L
[12]
  Norepinephrine, change from baseline, Mean (SD): −0.20 (0.55) nmol(L
  Norepinephrine, change from baseline, Median (Min, Max): −0.40 (−0.7, 0.7) nmol(L
  Norepinephrine, observed value, Mean (SD): 0.12 (0.41) nmol(L
  Norepinephrine, observed value, Median (Min, Max): 0.00 (−0.2, 0.8) nmol(L
Clamped to 5.5 mmol/L
  Normoglycemic levels of norepinephrine, effect of GABA treatment: decrease
Dose escalation part, oral GABA, type 1 diabetes patients with undetectable c-peptide
  Baseline (no clamp) norepinephrine levels, effect of GABA treatment: downregulated; also recorded: decrease
